# Data: ChEMBL document CHEMBL4765284, “Optimization of 5-substituted thiazolyl ureas and 6-substituted imidazopyridines as potential HIV-1 latency reversing agents” (Eur J Med Chem, 2020)
# Key:
# [1] = test system: Human immunodeficiency virus 1; experiment: Antiviral activity against HIV-1 infected in FlpIn-HEK293 cells assessed as activation of long terminal repeat driven gene expression incubated for 72 hrs by luciferase based cellular assay; type: functional, organism-based; conditions: Human immunodeficiency virus 1, HEK293, 72 h
# Cytomegalovirus = experiment: Antiviral activity against CMV infected in FlpIn-HEK293 cells assessed as click beetle green reporter driven gene expression incubated for 72 hrs by luciferase based cellular assay; type: functional, organism-based; conditions: HEK293, 72 h
EC50 [1] [nM],EC50 (Cytomegalovirus) [nM],Structure (SMILES)
1300,130,Cc1cnc2[nH]c(N3CCN(c4cnc(Cl)c(Cl)c4)CC3)nc2c1
230,1800,Cc1cnc(NC(=O)N2CCN(c3cccc(C#N)c3)CC2)s1
3400,4000,Cc1ccc(N2CCN(C(=O)Nc3nccs3)CC2)cc1Cl
> 40000,> 40000,Cc1ccc(OCCCc2nc3ncc(Cl)cc3s2)cc1Cl
> 40000,,Cc1cc(N[C@H]2CCCN(C(=O)Nc3ncc(Cl)s3)C2)ccc1Cl
16000,19000,Cc1ccc(N2CC3(CN(C(=O)Nc4ncc(Cl)s4)C3)C2)cc1Cl
> 40000,> 40000,Cc1cnc(NC(=O)N2CC3(C2)CN(c2ccc(C)c(Cl)c2)C3)s1
> 40000,,Cc1cnc(NC(=O)N2CCC[C@H](Nc3ccc(Cl)c(C)c3)C2)s1
2000,> 40000,Cc1ccc(N2CCC(C(=O)Nc3ncc(Cl)s3)CC2)cc1Cl
> 40000,> 40000,Cc1cnc(NC(=O)N2CCN(c3cncnc3)CC2)s1
> 40000,,Cc1cc(OC2CCCN(C(=O)Nc3ncc(Cl)s3)C2)ccc1Cl (stereo not given)
400,890,Cc1cc(N2CCN(C(=O)Nc3ncc(Cl)s3)CC2)ccc1Cl
12000,16000,Cc1cnc(NC(=O)N2CC(N(C)c3ccc(C)c(Cl)c3)C2)s1
> 40000,> 40000,Cc1cc(NC2CCN(C(=O)Nc3ncc(Cl)s3)CC2)ccc1Cl
750,820,Cc1cnc2[nH]c(N3CCN(c4ccc(Cl)c(Cl)c4)CC3)nc2c1
2700,5500,Cc1cnc(NC(=O)N2CCN(c3ccc(Cl)cc3)CC2)s1
1300,> 2000,Cc1ccc(N2CCN(C(=O)Nc3ncc(C(F)(F)F)s3)CC2)cc1Cl
11000,20000,Cc1cc(N(C)C2CCN(C(=O)Nc3ncc(Cl)s3)C2)ccc1Cl (stereo not given)
1500,3600,N#Cc1cnc(NC(=O)N2CCN(c3ccc(Cl)cc3)CC2)s1
8900,12000,O=C(Nc1ncc(Cl)s1)N1CCN(c2cncnc2)CC1
600,2300,Cc1cnc(NC(=O)N2CCN(c3ccc(Cl)c(C)c3)CC2)s1
> 40000,20000,Cc1cnc(NC(=O)N2CCC(Nc3ccc(Cl)c(C)c3)CC2)s1

EC50 [1] [nM],EC50 (Cytomegalovirus) [nM],Structure (SMILES)
22000,19000,Cc1ccc(N2CCCN(C(=O)Nc3ncc(Cl)s3)CC2)cc1Cl
> 40000,> 40000,Cc1cnc2sc(CCCOc3ccc(C)c(Cl)c3)nc2c1
240,2300,Cc1ccc(N2CCN(C(=O)Nc3ncc(C#N)s3)CC2)cc1Cl
1300,1500,Cc1ccc(N2CCN(C(=O)Nc3ncc(Cl)s3)C(C)C2)cc1Cl (stereo not given)
460,1000,Cc1cc(N2CCN(C(=O)Nc3ncc(Cl)s3)CC2)ncc1C#N
1500,2500,Cc1cc(OC2CCN(C(=O)Nc3ncc(Cl)s3)C2)ccc1Cl (stereo not given)
730,> 40000,Cc1cnc(NC(=O)N2CCN(c3cc(C(F)(F)F)c(Cl)cn3)CC2)s1
> 40000,40000,Cc1cnc(NC(=O)N2CCC(Oc3ccc(Cl)c(C)c3)CC2)s1
> 40000,> 40000,Cc1cnc(NC(=O)N2CCC[C@@H](Nc3ccc(Cl)c(C)c3)C2)s1
350,1640,O=C(Nc1ncc(Cl)s1)N1CCN(c2ccc(Cl)cc2)CC1
> 40000,33000,Cc1cnc(NC(=O)N2CCC(N(C)c3ccc(Cl)c(C)c3)C2)s1 (stereo not given)
470,5000,Cc1cnc(NC(=O)N2CCN(c3ccc(C)c(Cl)c3)CC2)s1
6200,14000,Cc1cnc(NC(=O)N2CCC(Nc3ccc(Cl)c(C)c3)C2)s1 (stereo not given)
980,2600,Clc1cnc2[nH]c(N3CCN(c4ccc(Cl)c(Cl)c4)CC3)nc2c1
20000,20000,Cc1cc(OC2CCN(C(=O)Nc3ncc(Cl)s3)CC2)ccc1Cl
3300,1200,Clc1cnc2[nH]c(CCCOc3ccc(Cl)c(Cl)c3)nc2c1
530,1900,Cc1ccc(OC2CN(C(=O)Nc3ncc(Cl)s3)C2)cc1Cl
930,490,Cc1cnc(NC(=O)N2CCN(c3ccc(Cl)c(Cl)c3)CC2)s1
920,1800,O=C(Nc1ncc(Cl)s1)N1CCN(c2cc(C(F)(F)F)c(Cl)cn2)CC1
1700,5000,Cc1cnc(NC(=O)N2CCN(c3ccccc3)CC2)s1
710,2300,Cc1cc(N2CCN(C(=O)Nc3ncc(C#N)s3)CC2)ccc1Cl
310,800,O=C(Nc1ncc(Cl)s1)N1CCN(c2ccc(Cl)c(Cl)c2)CC1

EC50 [1] [nM],EC50 (Cytomegalovirus) [nM],Structure (SMILES)
10000,21000,Cc1cnc(NC(=O)N2CCCN(c3ccc(C)c(Cl)c3)CC2)s1
> 40000,> 40000,Cc1cc(N[C@@H]2CCCN(C(=O)Nc3ncc(Cl)s3)C2)ccc1Cl
12000,24000,Cc1cnc2[nH]c(CCCOc3ccc(C)c(Cl)c3)nc2c1
8900,6500,Cc1cnc(NC(=O)N2CCN(c3ccc(C)c(Cl)c3)C(C)C2)s1 (stereo not given)
21000,34000,Cc1cnc2[nH]c(CCCOc3cnc(Cl)c(Cl)c3)nc2c1
10000,21000,Cc1cnc(NC(=O)N2CCN(c3cnc(C#N)c(C)c3)CC2)s1
14000,28000,Cc1cnc2[nH]c(CCCOc3ccc(Cl)c(Cl)c3)nc2c1
> 40000,> 40000,Cc1cc(N(C)C2CCN(C(=O)Nc3ncc(Cl)s3)CC2)ccc1Cl
820,3700,Cc1ccc(N2CCN(C(=O)Nc3ncc(Cl)s3)CC2C)cc1Cl (stereo not given)
220,1900,Cc1cnc(NC(=O)N2CC(Oc3ccc(C)c(Cl)c3)C2)s1
930,2800,Cc1ccc(N(C)C2CN(C(=O)Nc3ncc(Cl)s3)C2)cc1Cl
670,3000,Cc1cnc(NC(=O)N2CC(Nc3ccc(C)c(Cl)c3)C2)s1
320,> 300,Cc1ccc(N2CCN(c3nc4cc(Br)cnc4[nH]3)CC2)cc1Cl
4200,> 40000,Cc1cnc(NC(=O)N2CCN(c3cc(C)c(C#N)cn3)CC2)s1
210,830,Cc1cc(N2CCN(C(=O)Nc3ncc(Cl)s3)CC2)cnc1C#N
5000,5200,Cc1cnc(NC(=O)N2CCN(c3ccc(C)c(Cl)c3)CC2C)s1 (stereo not given)
2500,> 40000,Cc1cnc(NC(=O)C2CCN(c3ccc(C)c(Cl)c3)CC2)s1
300,570,Cc1cnc(NC(=O)N2CCN(c3cnc(Cl)c(Cl)c3)CC2)s1
2000,5200,Cc1cnc(NC(=O)N2CCC(Oc3ccc(Cl)c(C)c3)C2)s1 (stereo not given)
700,480,O=C(Nc1ncc(C(F)(F)F)s1)N1CCN(c2cnc(Cl)c(Cl)c2)CC1
